Entries after “also recorded” stand apart in the source; their conditions may differ.
What was measured:
D3 = D3 (Homo sapiens, UniProt P35462); assay: functional pKi (fpKi) at D3, comparison of separated enantiomers; assay type: biochemical; settings: difference in fpKi between the two separated enantiomers of the same example
[1] = system: Female Sprague Dawley rats; assay: stress-induced food intake, animal model for binge eating (diet restriction cycles + foot shock); assay type: in vivo
Text: Dieting is the strongest predictor of overeating in response of stress. In this specific case, binge eating or binge/purge behaviours are recognized as key features of the human diseases (bulimia nervosa or anorexia, respectively). Two critical factors seem to modulate the production of binge eating: a history of food restriction and access of high palatable (HP) food (dense in fat and sugar) and the interaction with environmental stress. Based on these premises, preclinical models can be developed to explore the potential therapeutic effect of test compounds on binge eating. One model which may be used is described by Hagan et al (Hagan, M. M. et al., Physiol and Beh 77 (2002): 45-54).
Slight modifications such as those below may be applied to their model, for example: • Instrument to deliver FS: Passive Avoidance (Gemini Avoidance System, Coubourn Instrument, San Diego) may be used instead of the 4 closed runways with metal bar floors (Coulbourn Instruments Habitest System, Allentown, Pa.). • Refeeding: 4 days instead of 6 days • HP food: Baiocchi® (Barilla) instead of Oreo® biscuits • For the submission of the animals to the pharmacological treatment, see: Placidi et al., Int J Eat Disord 2004 36 (3) 328-41
Based on the model by Hagan et al, and incorporating the above changes, a model for binge eating may be set up as follows. Female Sprague Dawley rats (7 weeks old) can be single housed at 21±1 C and under a 12 h/12 h light/dark cycle (dark phase: 18:00-06:00) for all the period of the experiment. Before beginning, rats can be habituated to these conditions for 7 days. The rats can then be divided into 2 groups (16 animals/group). One group may take food ad lib (non restricted group: NR) for the 24 days of the experiment, while the other (Restricted Group: R) may receive a restricted diet (66% of the quantity food intake that the other control group was eating) during 4 days, and eat ad lib for the following 4 days. This cycle can be repeated 3 times. Following the last day of refeeding, each group can be subdivided in two. Eight animals of group NR and 8 animals of group R can receive a stress stimulus (4 Foot Shocks (FS) of 0.6 mA separated by 15 sec intervals) while the other 2 subgroups can remain in the same cage where FS is delivered for the same period of time, but without receiving the FS (no shocked: NS). The 4 groups are S/NR, NS/NR, S/R and NS/R. Immediately following time in the shock apparatus, rats can be submitted to a pharmacological treatment (administration of the test compound or of the vehicle) and then be returned to the animal colony. A pre-measured amount of pellets or HP food (Baiocchie) can be put in each cage, and food intake measured after 4 h. Food intake can be expressed in kcal.
Rationale—The effects of the title compound, prepared in an analogous way with Example 123, were tested in the animal model discussed above. The aim of the present study was to assess the effect of this compound in animals that received 3 cycles of diet (restricted:R) and stress (shocked) conditions similar to binge eating in humans.
Methods—Female Sprague Dawley rats (7-week old) were single housed at 21±1° C. and under a 12 h/12 h light/dark cycle (dark phase: 18:00-06:00) for all the entire experimental period. Rats received a restricted diet (66% of the food intake vs. control group) during 4 days, and ate ad libitum for the following 4 days. This cycle was repeated 3 times. Additionally, two other groups were eating ad libitum (not restricted: NR) and received the shock (NR/S). Following the last day of refeeding, the animals received a stress stimulus (4 Foot Shocks (FS) of 0.6 mA separated by 15 sec intervals) and received vehicle or the title compound (0.03, 0.3 or 3 mg/kg i.p.) immediately after the shock. These were the S/R (shocked/Restricted) rats. The S/NR rats received the shock and vehicle or the title compound (prepared in an analogous way with Example 123; 3 mg/kg i.p.) in the same way as the S/R groups. […]

[2] = S/NR (shocked/not restricted) rats, 3 mg/kg i.p. after foot shock
[3] = S/R (shocked/restricted) rats, 0.03 mg/kg i.p. after foot shock
[4] = S/R (shocked/restricted) rats, 0.3 mg/kg i.p. after foot shock
[5] = S/R (shocked/restricted) rats, 3 mg/kg i.p. after foot shock

Chain of D3 (P35462 whole entry): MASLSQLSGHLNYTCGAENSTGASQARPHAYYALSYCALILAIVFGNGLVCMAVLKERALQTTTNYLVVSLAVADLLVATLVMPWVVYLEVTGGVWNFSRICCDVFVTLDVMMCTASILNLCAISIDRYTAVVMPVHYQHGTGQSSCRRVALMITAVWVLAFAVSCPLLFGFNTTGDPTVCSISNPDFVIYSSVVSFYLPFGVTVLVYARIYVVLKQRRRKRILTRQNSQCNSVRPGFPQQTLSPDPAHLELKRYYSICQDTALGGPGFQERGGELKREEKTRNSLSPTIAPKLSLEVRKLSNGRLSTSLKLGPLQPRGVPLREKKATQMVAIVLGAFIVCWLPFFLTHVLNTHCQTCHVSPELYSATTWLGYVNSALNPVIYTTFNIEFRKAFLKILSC

| SMILES | fpKi (D3) higher than the other enantiomer (D3) | also measured |
| --- | --- | --- |
| COc1ccc([C@]23C[C@H]2CN(CCCSc2nnc(-c4cccc5nc(C)ccc45)n2C)C3)cc1 (single isomer, unassigned) [Example 1 Enantiomer 1] | > 1 log-unit | – |
| Cc1ccc2c(-c3nnc(SCCCN4C[C@@H]5C[C@]5(c5ccc(Br)cc5)C4)n3C)cccc2n1 (single isomer, unassigned) [Example 2 Enantiomer 2] | > 1 log-unit | – |
| Cc1ccc2c(-c3nnc(SCCCN4C[C@@H]5C[C@]5(c5ccccc5)C4)n3C)cccc2n1 (single isomer, unassigned) [Example 3 Enantiomer 2] | > 1 log-unit | – |
| Cc1ccc2c(-c3nnc(SCCCN4C[C@@H]5C[C@]5(c5ccc(Cl)c(Cl)c5)C4)n3C)cccc2n1 (single isomer, unassigned) [Example 4 Enantiomer 1] | > 0.6 log-unit | – |
| Cc1ccc2c(-c3nnc(SCCCN4C[C@@H]5C[C@]5(c5ccc(C(C)(C)C)cc5)C4)n3C)cccc2n1 (single isomer, unassigned) [Example 5 Enantiomer 2] | > 0.9 log-unit | – |
| Cc1ncoc1-c1nnc(SCCCN2C[C@@H]3C[C@]3(c3ccc(Br)cc3)C2)n1C (single isomer, unassigned) [Example 9 Enantiomer 1] | > 1 log-unit | – |
| COc1ccc([C@]23C[C@H]2CN(CCCSc2nnc(-c4ocnc4C)n2C)C3)cc1C(C)=O (single isomer, unassigned) [Example 19 Enantiomer 1] | > 1 log-unit | – |
| Cc1ncoc1-c1nnc(SCCCN2C[C@@H]3C[C@]3(c3ccc(Cl)cc3)C2)n1C (single isomer, unassigned) [Example 20 Enantiomer 1] | > 1 log-unit | – |
| Cc1ncoc1-c1nnc(SCCCN2C[C@@H]3C[C@]3(c3ccc(F)cc3)C2)n1C (single isomer, unassigned) [Example 21 Enantiomer 1] | > 1 log-unit | – |
| Cc1ncoc1-c1nnc(SCCCN2C[C@]3(C)C[C@@]3(c3cccc(Cl)c3)C2)n1C (single isomer, unassigned) [Example 22 Enantiomer 1] | > 1 log-unit | – |
| Cc1ncoc1-c1nnc(SCCCN2C[C@@H]3C[C@]3(c3cccc(F)c3)C2)n1C (single isomer, unassigned) [Example 23 Enantiomer 1] | > 1 log-unit | – |
| COc1cccc([C@]23C[C@H]2CN(CCCSc2nnc(-c4ocnc4C)n2C)C3)c1 (single isomer, unassigned) [Example 24 Enantiomer 1] | > 1 log-unit | – |
| Cn1c(SCCCN2C[C@@H]3C[C@]3(c3ccc(OC(F)(F)F)cc3)C2)nnc1C1CCOCC1 (single isomer, unassigned) [Example 33 Enantiomer 1] | > 1 log-unit | – |
| Cc1ncoc1-c1nnc(SCCCN2C[C@@H]3C[C@]3(c3cc(C(F)(F)F)ccc3F)C2)n1C (single isomer, unassigned) [Example 36 Enantiomer 2] | > 1 log-unit | – |
| Cc1ncoc1-c1nnc(SCCCN2C[C@]3(C)C[C@@]3(c3ccc(C(F)(F)F)c(F)c3)C2)n1C (single isomer, unassigned) [Example 61 Enantiomer 1] | > 2 log-unit | – |
| CCC(=O)c1cc([C@]23C[C@H]2CN(CCCSc2nnc(-c4ocnc4C)n2C)C3)ccc1OC (single isomer, unassigned) [Example 71 Enantiomer 1] | > 1 log-unit | – |
| Cc1nc2cc([C@]34C[C@H]3CN(CCCSc3nnc(-c5ocnc5C)n3C)C4)ccc2s1 (single isomer, unassigned) [Example 72 Enantiomer 1] | > 1 log-unit | – |
| Cc1ncoc1-c1nnc(SCCCN2C[C@@H]3C[C@]3(c3ccc4c(cnn4C)c3)C2)n1C (single isomer, unassigned) [Example 74 Enantiomer 1] | > 1 log-unit | – |
| Cc1ncoc1-c1nnc(SCCCN2C[C@@H]3C[C@]3(c3ccc(C(F)(F)F)cn3)C2)n1C (single isomer, unassigned) [Example 96 Enantiomer 2] | > 1 log-unit | – |
| Cc1ncoc1-c1nnc(SCCCN2C[C@@H]3C[C@]3(c3ccc(OC(F)(F)F)cc3)C2)n1C (single isomer, unassigned; enantiomer 1) [Example 30 Enantiomer 1] | > 1 log-unit | – |
| Cc1ncoc1-c1nnc(SCCCN2C[C@@H]3C[C@]3(c3cc(F)cc(C(F)(F)F)c3)C2)n1C (single isomer, unassigned; enantiomer 1) [Example 110 Enantiomer 1] | > 1 log-unit | – |
| Cc1ncoc1-c1nnc(SCCCN2C[C@@H]3C[C@]3(c3cccc(C(F)(F)F)c3F)C2)n1C (single isomer, unassigned; enantiomer 2) [Example 111 Enantiomer 2] | > 1 log-unit | – |
| Cc1ncoc1-c1nnc(SCCCN2C[C@@H]3C[C@]3(c3ccc(C(F)(F)F)cc3F)C2)n1C.O=C(O)[C@H](O)[C@@H](O)C(=O)O [Example 123, (1S,5R)-1-[2-Fluoro-4-(trifluoromethyl)phenyl]-3-(3-{[4-methyl-5-(4-methyl-1,3-oxazol-5-yl)-4H-1,2,4-triazol-3-yl]thio}propyl)-3-azabicyclo[3.1.0]hexane tartrate] | – | inhibitory effect in non-stressed animals, in respect to controls ([1]; 3 mg/kg i.p., result in words, tartrate): did not show any inhibitory effect; also recorded: No significant effects; Chow Intake after 4 h [1, 2]: 1.92 ± 0.66 kcal; HP Intake after 4 h [1, 2]: 8.73 ± 2.75 kcal; Total Food Intake after 4 h [1, 2]: 10.65 ± 2.75 kcal; Chow Intake after 4 h [1, 3]: 1.95 ± 0.58 kcal; HP Intake after 4 h [1, 3]: 17.11 ± 2.49 kcal; Total Food Intake after 4 h [1, 3]: 19.06 ± 2.44 kcal; Chow Intake after 4 h [1, 4]: 2.09 ± 0.74 kcal; HP Intake after 4 h [1, 4]: 14.44 ± 2.15 kcal; Total Food Intake after 4 h [1, 4]: 16.54 ± 1.94 kcal; Chow Intake after 4 h [1, 5]: 2.62 ± 0.79 kcal; HP Intake after 4 h [1, 5]: 8.89 ± 1.90 kcal; Total Food Intake after 4 h [1, 5]: 11.51 ± 1.99 kcal; effect on total Food Intake ([1]; S/R rats, highest dose of 3 mg/kg, 1-way ANOVA, result in words): significantly decreased total food intake; effect on HP intake ([1]; S/R rats, highest dose of 3 mg/kg, Dunnett's p<0.01, result in words): significantly decreased HP intake; effect on Chow intake ([1]; S/R rats, highest dose of 3 mg/kg, Dunnett's p<0.05, result in words): significantly decreased chow Intake; effect on stress-induced overeating ([1]; result in words): significant inhibitory effect on stress-induced overeating |

From US20090036461A1, “Use of Azabicyclo Hexane Derivatives” (priority 2005, published 2009)
